Several values for one entry are separate records, joined by “and”; a condition that tells them apart may be missing. Equal values may be shown once.
What was measured:
116/VM46 = 116/VM46 activity, resistant line (Table 1); format: cell-based; settings: for IC50: 116/VM46 cells, unit inferred; for R/S ratio: ratio 116/VM46 (resistant) to HCT116 (sensitive)
Tubulin = Tubulin Data (Table 1); format: biochemical; settings: ratio analog/paclitaxel for tubulin data
HCT116 = HCT116 activity (Table 1); format: cell-based; settings: for IC50: HCT116 cells, unit inferred; for anal/PT (beside HCT116 and 116/VM46): ratio analog/paclitaxel in HCT116

COc1cccc(C(=O)O[C@H]2[C@@H]3[C@]4(OC(=O)C5CC5)CO[C@@H]4C[C@H](O)[C@@]3(C)C(=O)[C@H](OC(C)=O)C3=C(C)[C@@H](OC(=O)[C@H](O)[C@@H](NC(=O)c4ccccc4)c4ccccc4)C[C@]2(O)C3(C)C)c1 [MC-134-45, 2-(m-methoxybz)-4-cyclopropylCO-PT]
IC50 (116/VM46): 40 nM
R/S ratio (116/VM46): 20
anal/PT (beside Tubulin Data) (Tubulin): 1.3
IC50 (HCT116): 2 nM

COC(=O)O[C@@]12CO[C@@H]1C[C@H](O)[C@@]1(C)C(=O)[C@H](OC(C)=O)C3=C(C)[C@@H](OC(=O)[C@H](O)[C@@H](NC(=O)c4ccccc4)c4ccccc4)C[C@@](O)([C@@H](OC(=O)c4cccc(OC)c4)[C@H]21)C3(C)C [MC-134-61, 2-(m-methoxybenzoyl)-4-MeOCO-PT]
R/S ratio (116/VM46): 129
anal/PT (beside Tubulin Data) (Tubulin): 0.9
IC50 (HCT116): 6.7 nM and 4.4 nM

COC(=O)O[C@@]12CO[C@@H]1C[C@H](O)[C@@]1(C)C(=O)[C@H](OC(C)=O)C3=C(C)[C@@H](OC(=O)[C@H](O)[C@@H](NC(=O)c4ccccc4)c4ccccc4)C[C@@](O)([C@@H](OC(=O)c4cccc(C)c4)[C@H]21)C3(C)C [MC-134-68, 2-(m-methylbenzoyl)-4-MeOCO-PT]
IC50 (116/VM46): 44 nM
R/S ratio (116/VM46): 21
anal/PT (beside Tubulin Data) (Tubulin): 0.8
IC50 (HCT116): 2.1 nM

CC(=O)O[C@H]1C(=O)[C@@]2(C)[C@H]([C@H](OC(=O)c3cccc(N=[N+]=[N-])c3)[C@]3(O)C[C@H](OC(=O)[C@H](O)[C@@H](NC(=O)c4ccccc4)c4ccccc4)C(C)=C1C3(C)C)[C@]1(OC(=O)C3CC3)CO[C@@H]1C[C@@H]2O [MC-134-91, 2-m-azido-4-cyclopropylCO-PT]
IC50 (116/VM46): 28 nM and < 16 nM
R/S ratio (116/VM46): 10.4
anal/PT (beside Tubulin Data) (Tubulin): 0.08

CC(=O)O[C@H]1C(=O)[C@@]2(C)[C@H]([C@H](OC(=O)c3cccc(Cl)c3)[C@]3(O)C[C@H](OC(=O)[C@H](O)[C@@H](NC(=O)c4ccccc4)c4ccccc4)C(C)=C1C3(C)C)[C@]1(OC(=O)C3CC3)CO[C@@H]1C[C@@H]2O [MC-134-92, 2-m-chloro-4-cyclopropylCO-PT]
IC50 (116/VM46): 30 nM and < 16 nM
R/S ratio (116/VM46): 18
anal/PT (beside Tubulin Data) (Tubulin): 0.06
IC50 (HCT116): 1.7 nM and 1.1 nM

COC(=O)OC12COC1CC(O)C1(C)C(=O)C(OC(C)=O)C3=C(C)C(OC(=O)C(O)C(NC(=O)c4ccccc4)c4ccccc4)CC(O)(C(OC(=O)c4cccc(Cl)c4)C21)C3(C)C (stereo not shown) [MC-134-100, 2-m-chloro-4-MeOCO-PT]
IC50 (116/VM46): 82 nM
R/S ratio (116/VM46): 37
anal/PT (beside Tubulin Data) (Tubulin): 0.4
IC50 (HCT116): 2.2 nM

COc1cccc(C(=O)O[C@H]2[C@@H]3[C@]4(OC(=S)SC)CO[C@@H]4C[C@H](O)[C@@]3(C)C(=O)[C@H](OC(C)=O)C3=C(C)[C@@H](OC(=O)[C@H](O)[C@@H](NC(=O)c4ccccc4)c4ccccc4)C[C@]2(O)C3(C)C)c1 [MC-134-229, 2-(m-methoxybenzoyl-4-xanthyl)PT]
IC50 (116/VM46): 53.2 nM
R/S ratio (116/VM46): 11.32
anal/PT (beside Tubulin Data) (Tubulin): 8.9
IC50 (HCT116): 4.7 nM
anal/PT (beside HCT116 and 116/VM46) (HCT116): 3.08

CSC(=S)O[C@@]12CO[C@@H]1C[C@H](O)[C@@]1(C)C(=O)[C@H](OC(C)=O)C3=C(C)[C@@H](OC(=O)[C@H](O)[C@@H](NC(=O)c4ccccc4)c4ccccc4)C[C@@](O)([C@@H](OC(=O)c4cccc(Cl)c4)[C@H]21)C3(C)C [MC-134-238, 2-(m-chlorobenzoyl-4-xanthyl)PT]
IC50 (116/VM46): 58.6 nM
R/S ratio (116/VM46): 10.34
anal/PT (beside Tubulin Data) (Tubulin): 3.5
IC50 (HCT116): 5.7 nM
anal/PT (beside HCT116 and 116/VM46) (HCT116): 3.72

CSC(=S)O[C@@]12CO[C@@H]1C[C@H](O)[C@@]1(C)C(=O)[C@H](OC(C)=O)C3=C(C)[C@@H](OC(=O)[C@H](O)[C@@H](NC(=O)c4ccccc4)c4ccccc4)C[C@@](O)([C@@H](OC(=O)c4cccc(N=[N+]=[N-])c4)[C@H]21)C3(C)C [MC-134-239, 2-(m-azidobenzoyl-4-xanthyl)PT]
IC50 (116/VM46): 135 nM
R/S ratio (116/VM46): 8.03
anal/PT (beside Tubulin Data) (Tubulin): 42
IC50 (HCT116): 16.8 nM
anal/PT (beside HCT116 and 116/VM46) (HCT116): 11.02

CC(=O)OC1C(=O)C2(C)C(O)CC3OCC3(OC(=O)C3CC3)C2C(OC(=O)c2ccc(Cl)cc2Cl)C2(O)CC(OC(=O)C(O)C(NC(=O)c3ccccc3)c3ccccc3)C(C)=C1C2(C)C (stereo not shown) [MC-134-247, 2-(2,4-dichlorobz)-4-cyclopropylCO-PT]
IC50 (116/VM46): 76.6 nM
R/S ratio (116/VM46): 30.64
anal/PT (beside Tubulin Data) (Tubulin): 0.7
IC50 (HCT116): 2.5 nM
anal/PT (beside HCT116 and 116/VM46) (HCT116): 1.09

CC(=O)OC1C(=O)C2(C)C(O)CC3OCC3(OC(=O)C3CC3)C2C(OC(=O)c2ccc(F)cc2F)C2(O)CC(OC(=O)C(O)C(NC(=O)c3ccccc3)c3ccccc3)C(C)=C1C2(C)C (stereo not shown) [MC-134-248, 2-(2,4-difluorobz)-4-cyclopropylCO-PT]
IC50 (116/VM46): 8.2 nM
R/S ratio (116/VM46): 3.86
anal/PT (beside Tubulin Data) (Tubulin): 0.2
IC50 (HCT116): 2.1 nM
anal/PT (beside HCT116 and 116/VM46) (HCT116): 1.03

COc1ccc(OC)c(C(=O)O[C@H]2[C@@H]3[C@]4(OC(=O)C5CC5)CO[C@@H]4C[C@H](O)[C@@]3(C)C(=O)[C@H](OC(C)=O)C3=C(C)[C@@H](OC(=O)[C@H](O)[C@@H](NC(=O)c4ccccc4)c4ccccc4)C[C@]2(O)C3(C)C)c1 [MC-134-250, 2-(2,5-dimethoxybz)-4-cyclopropylCO-PT]
IC50 (116/VM46): 45.1 nM
R/S ratio (116/VM46): 25.06
anal/PT (beside Tubulin Data) (Tubulin): 0.5
IC50 (HCT116): 1.8 nM
anal/PT (beside HCT116 and 116/VM46) (HCT116): 0.78

CC(=O)OC1C(=O)C2(C)C(O)CC3OCC3(OC(=O)c3cccc(Cl)c3)C2C(OC(=O)c2cccc(Cl)c2)C2(O)CC(OC(=O)C(O)C(NC(=O)c3ccccc3)c3ccccc3)C(C)=C1C2(C)C (stereo not shown) [MC-134-277, 2-(m-Cl-benzoyl)-4-(m-Cl-benzoyl)PT]
IC50 (116/VM46): 2460 nM
anal/PT (beside Tubulin Data) (Tubulin): 144
IC50 (HCT116): 2430 nM

CC(=O)O[C@H]1C(=O)[C@@]2(C)[C@H]([C@H](OC(=O)c3ccccc3)[C@]3(O)C[C@H](OC(=O)[C@H](O)[C@@H](NC(=O)c4ccccc4)c4ccccc4)C(C)=C1C3(C)C)[C@]1(OC(C)=O)CO[C@@H]1C[C@@H]2O [paclitaxel (PT), paclitaxel, reference compound]
IC50 (116/VM46): 203 nM
anal/PT (beside Tubulin Data) (Tubulin): 1
IC50 (HCT116): 2 nM
